Reference: patent US9995734B2, “Human T cell line assay for evaluating the immunologic identity of glatiramer acetate preparations” (Mylan Inc., priority 2013, dated 2018)

Assays:
[1] = test system: Donor 4 COP T-cell lines (205-1D1, 205-1H7, 205-1F4); experiment: MHC DR restriction testing (ATP proliferation with autologous and partially HLA-DR matched B-LCL), Donor 4 COP T-cell lines; type: cell-based, human; conditions: for Proliferation with antigen-incubated B-LCL, Mean: T-cell line 205-1F4
Description: (§1) MHC DR restriction testing of cell lines was carried out by measuring the proliferation response of the cell lines as described above in the presence of an array of APC selected based on the known HLA-DR loci of the original PBMC donor for the cell line tested, including autologous APC (B-LCL). The donors used are described in Table 2.
(§2) To define the MHC molecule used to present antigen to GA specific T cell lines, GA specific responses were measured in the presence of autologous APC and in the presence of APC matching one of the T cell donor's HLA-DR alleles. Therefore at least 3 APC were used in each experiment: autologous APC, APC matching DR allele 1 but not allele 2 and a third APC matching allele 2 but not allele 1. In some experiments a fourth APC B-LCL was used. A no antigen negative control was used. APC were inactivated by incubation with 50 ug/mL mitomycin C. Following inactivation, cells were washed three times to remove mitomycin C and suspended in X-VIVO 15 medium at 1×10^6 cells per mL. GA was added to the cell suspension to a final concentration of 20-60 μg/mL. The cells were incubated with antigen for 1 hour at 37° C. to allow antigen uptake and binding. The cell suspension was then centrifuged to pellet the cells and the cell pellet was washed once with medium. APC were adjusted to 2×10^5 cells per mL in X-VIVO 15 medium and added to opaque 96-well plates at 100 μL per well. T-cell suspensions of 2-4×10^5 cells per mL (unless otherwise specified) were added to the 96-well plates at 100 μL per well and the cultures incubated 4 days before measuring cell numbers using CellTiter Glo® (to evaluate proliferation).
(§3) Alternatively, APC were not pulsed. Instead, each well contained 10 ug/mL antigen, 50 μl APC and 100 μL of T cells.
(§4) After incubating for 4 days at 37° C. (5% CO2), 100 μL were removed from each well, combined with 100 μL CellTiterGlo reagent, and luminescence was measured using a Packard Fusion. Results were expressed in relative light units (RLU).
(§5) As described in the Methods, T-cell lines were tested for MHC restriction by measuring proliferation following incubation with APC. Mitomycin-treated autologous APC, and test APC, e.g., from donors having at least one HLA-DR match with the original PBMC donor were employed. The values in the data tables below are in RLU.
(§6) Donor 4 T-cell line 205-1D1 was assayed for proliferation, using autologous B-LCL, and B-LCL from Donors 1, 2, and 6 that had been incubated in the presence or absence of 60 μg/mL COP. T-cell line 205-1D1 was restimulated 5 times (not including the initial stimulation) with antigen before the MHC restriction assay was carried out. The results, shown in Table 73, indicate that 205-1D1 is restricted by HLA-DRβ1*13.
as §6, with “205-1H7” for “205-1D1”, “40” for “60”, “74 and FIG. 14B,” for “73,”
Donor 4 T-cell line 205-1F4 and 205-1C4 was assayed for proliferation, using autologous B-LCL, and B-LCL from Donors 1, 2, and 6 that had been incubated in the presence or absence of 40 μg/mL COP. T-cell line 205-1F4 was restimulated 7 times (not including the initial stimulation) with antigen before the MHC restriction assay was carried out. The results, shown in Table 75, indicate that 205-1F4 is restricted by HLA-DRβ1*13.

[2] = test system: Donor 3 COP T-cell lines (165-B6C, 165-C7C, 165-D3C, 165-F3C, 165-F6C); experiment: MHC DR restriction testing (ATP proliferation with autologous and partially HLA-DR matched APC), Donor 3 COP T-cell lines; type: cell-based, human; conditions: 20 μg/mL
Description: as §1, §2, §3, §4, §5
(§7) Donor 3 T-cell line 165-B6C was assayed for proliferation, using mitomycin-treated APC from Donors 3, 5, and 6 that had been incubated in the presence or the absence of 20 μg/mL COP. T-cell line 165-B6C had been restimulated six times (not including the initial stimulation) with antigen before the MHC restriction assay was carried out. The data, shown in Table 68 and FIG. 12A, indicate that […] is restricted by HLA-DRβ1*11.
as §7, with “165-C7C” for “165-B6C”, “five” for “six”, “69” for “68”, “12B,” for “12A,”
T-cell line 165-D3C had been restimulated six times (not including the initial stimulation) with antigen before the MHC restriction assay was carried out. The data, shown in Table 70 and FIG. 13A, indicate that 165-D3Cis restricted by HLA-DRβ1*1501.
T-cell line 165-F3C had been restimulated eight times (not including the initial stimulation) with antigen before the MHC restriction assay was carried out. The data, shown in Table 71 and FIG. 13B, indicate that 165-F3C is restricted by HLA-DRβ1*11.
Donor 3 T-cell line 165-F6C was assayed for proliferation, using mitomycin-treated APC from Donors 3, 5, and 6 that had been incubated in the presence or the absence of 20 μg/mL COP. […]

glatiramer acetate [COP]
Proliferation with antigen-incubated B-LCL ([1]; T-cell line 205-1D1, B-LCL Donor 1 DRβ1*04:01/DRβ1*07:01, 60 μg/mL): 1504.7 RLU
Proliferation with antigen-incubated B-LCL ([1]; T-cell line 205-1D1, B-LCL Donor 2 DRβ1*04:01/DRβ1*04:04, 60 μg/mL): 1203.7 RLU
Proliferation with antigen-incubated B-LCL ([1]; T-cell line 205-1D1, B-LCL Donor 4 (autologous) DRβ1*07/DRβ1*13, 60 μg/mL): 231113.0 RLU
Proliferation with antigen-incubated B-LCL ([1]; T-cell line 205-1D1, B-LCL Donor 6 DRβ1*15:01/DRβ1*13, 60 μg/mL): 203780.3 RLU
Proliferation with antigen-incubated B-LCL, Mean ([1]; APC donor 1 *04:01, *07, 40 μg/mL): 11323 RLU
Proliferation with antigen-incubated B-LCL, Mean ([1]; APC donor 2 *04:01*04:04, 40 μg/mL): 1786 RLU
Proliferation with antigen-incubated B-LCL, Mean ([1]; APC donor 4 (autologous) *07, *13, 40 μg/mL): 84094 RLU
Proliferation with antigen-incubated B-LCL, Mean ([1]; APC donor 6 *13, *15, 40 μg/mL): 113079 RLU
Proliferation with antigen-incubated B-LCL ([1]; T-cell line 205-1H7, B-LCL Donor 1 DRβ1*04:01/DRβ1*07:01, 40 μg/mL): 8430 RLU
Proliferation with antigen-incubated B-LCL ([1]; T-cell line 205-1H7, B-LCL Donor 2 DRβ1*04:01/DRβ1*04:04, 40 μg/mL): 2065 RLU
Proliferation with antigen-incubated B-LCL ([1]; T-cell line 205-1H7, B-LCL Donor 4 (autologous) DRβ1*07/DRβ1*13, 40 μg/mL): 32418 RLU
Proliferation with antigen-incubated B-LCL ([1]; T-cell line 205-1H7, B-LCL Donor 6 DRβ1*15:01/DRβ1*13, 40 μg/mL): 30583 RLU

glatiramer acetate [GMA]
Proliferation with antigen-incubated APC ([2]; T-cell line 165-B6C, B-LCL Donor 3 (Autologous) DRβ1*1501/DRβ1*11): 2237 RLU
Proliferation with antigen-incubated APC ([2]; T-cell line 165-B6C, B-LCL Donor 5 DRβ1*01/DRβ1*11): 8944 RLU
Proliferation with antigen-incubated APC ([2]; T-cell line 165-B6C, B-LCL Donor 6 DRβ1*1501/DRβ1*13): 322 RLU
Proliferation with antigen-incubated APC ([2]; T-cell line 165-C7C, B-LCL Donor 3 (Autologous) DRβ1*1501/DRβ1*11): 13714 RLU
Proliferation with antigen-incubated APC ([2]; T-cell line 165-C7C, B-LCL Donor 5 DRβ1*01/DRβ1*11): 94535 RLU
Proliferation with antigen-incubated APC ([2]; T-cell line 165-C7C, B-LCL Donor 6 DRβ1*1501/DRβ1*13): 1189 RLU
Proliferation with antigen-incubated APC ([2]; T-cell line 165-D3C, B-LCL Donor 3 (Autologous) DRβ1*1501/DRβ1*11): 106840 RLU
Proliferation with antigen-incubated APC ([2]; T-cell line 165-D3C, B-LCL Donor 5 DRβ1*01/DRβ1*11): 12173 RLU
Proliferation with antigen-incubated APC ([2]; T-cell line 165-D3C, B-LCL Donor 7 DRβ1*1501/DRβ1*03): 149506 RLU
Proliferation with antigen-incubated APC ([2]; T-cell line 165-F3C, B-LCL Donor 3 (Autologous) DRβ1*1501/DRβ1*11): 45559 RLU
Proliferation with antigen-incubated APC ([2]; T-cell line 165-F3C, B-LCL Donor 5 DRβ1*01/DRβ1*11): 39565 RLU
Proliferation with antigen-incubated APC ([2]; T-cell line 165-F3C, B-LCL Donor 6 DRβ1*1501/DRβ1*3): 7869 RLU
Proliferation with antigen-incubated APC ([2]; T-cell line 165-F6C, B-LCL Donor 3 (Autologous) DRβ1*1501/DRβ1*11): 12562 RLU
Proliferation with antigen-incubated APC ([2]; T-cell line 165-F6C, B-LCL Donor 5 DRβ1*01/DRβ1*11): 3142 RLU
Proliferation with antigen-incubated APC ([2]; T-cell line 165-F6C, B-LCL Donor 6 DRβ1*1501/DRβ1*13): 30293 RLU
